Data on two compounds can be found in publication PMC11088877, “AMP-activated protein kinase can be allosterically activated by ADP but AMP remains the key activating ligand” (Biochemical Journal, 2024).

In test [1] the target is T1, human α2β2γ1 complex (WT) (Homo sapiens, UniProt P54619+P54646).
T1 construct: made in house; host or cells: Escherichia coli
The test can be described thus: Allosteric activation of WT human α2β2γ1 AMPK complex by AMP and ADP. Type of test: biochemical. The source says:
To study allosteric activation with a more well-defined AMPK complex, and to study the effects of mutations in individual adenine nucleotide-binding sites on the γ subunit, we expressed a human α2β2γ1 complex in Escherichia coli and purified it utilizing the polyhistidine tag at the N-terminus of the α2 subunit. […] However, it had not been co-expressed with an N-myristoyl transferase so would not have been N-myristoylated on the β2 subunit. The complex was expressed not only with the WT γ1 sequence but also with mutations affecting hydrophobic residues previously shown to be involved in binding of the adenine moieties of nucleotides at CBS1 (L129D/V130D), CBS3 (V276G/L277G) and CBS4 (I312G). All four complexes co-purified as heterotrimeric 1:1:1 complexes as expected, and were phosphorylated and activated equally well either by CaMKK2 or the LKB1: STRADα:MO25α complex (Supplementary Figure S2). For the studies described below we phosphorylated Thr172 using a GST-tagged CaMKK2 and repurified AMPK using size exclusion chromatography and a glutathione-Sepharose column, which remove CaMKK2.
Figure 4. Allosteric activation of WT and mutant human α2β2γ1 AMPK complex by AMP and ADP at three different concentrations of ATP. The α2β2γ1 complex was phosphorylated on Thr172 prior to assay using CaMKK2. The γ1 subunit was either (A/E): WT; (B/F): a CBS1 mutant (L129D/V130D); (C/G): a CBS3 mutant (V276G/L277G); (D/H): a CBS4 mutant (I312G). Results are means of duplicate assays ± SD; error bars are not shown if they were smaller than the symbols used for mean values. Assays and curve fitting were as in Figure 1 at either 0.2 mM (left panels) or 5 mM (right panels) ATP. Best-fit values for all parameters used to generate the curves are listed in Supplementary Table S1.
Sources of antibodies were as described: pThr172 (AMPK-α: Cell Signaling Technologies, Danvers, MA, U.S.A., Cat# 2535), AMPK-α2 [22]. Rat liver AMPK was purified as described previously. Plasmid encoding human (His)6-tagged AMPK (α2β2γ1, bacterially expressed) generated as in [23], was a gift from AstraZeneca, Cambridge, U.K. The L129D/V130D (CBS1), V276G/L277G (CBS3) and I312G (CBS4) mutations in the α2β2γ1 complex were generated using the Quikchange II site-directed mutagenesis kit (Agilent Technologies) and confirmed by DNA sequencing. Human GST-tagged α2 kinase domain (1–310), LKB1:STRAD-α:MO25-α complexes, GST-tagged CaMKK2 [26], and PPM1A (PP2Cα) were produced as described. Bacterially expressed heterotrimers were activated by phosphorylation of Thr172 by GST-tagged CaMKK2 in the presence of ATP, and CaMKK2 was subsequently removed by passage through glutathione-Sepharose. Human GST-tagged α2 kinase domain was activated in a similar manner except that human (His)6-tagged LKB1:STRAD-α:MO25-α complex was used and removed after activation via passage through a His-Trap column. Recombinant human 5′-nucleotidase, CD73, Cat # 5795-EN-01, was from R&D systems (Minneapolis, MN, U.S.A.).
AMPK assays measured the transfer of radioactivity from [γ-^33P]ATP to a peptide substrate, which was separated from unreacted ATP by binding to P81 paper. This assay was described previously except that we used [γ-^33P] rather than [γ-^32P]ATP. In some assays (specified in Figure legends) the concentration of ATP was increased from 0.2 to 1 or 5 mM ATP, with MgCl2 concentrations maintained at a constant 4.8 mM excess above the concentration of ATP [19]. Where allosteric activation by AMP or ADP was being studied, we used the SAMS peptide as substrate. For all other assays the AMARA peptide was used.

In test [2] the target is T2, human α2β2γ1 complex, CBS4 mutant (I312G) (Homo sapiens, UniProt P54619+P54646, I312G).
T2 construct: made in house; host or cells: Escherichia coli
T2 sequence (P54619 whole entry I312G): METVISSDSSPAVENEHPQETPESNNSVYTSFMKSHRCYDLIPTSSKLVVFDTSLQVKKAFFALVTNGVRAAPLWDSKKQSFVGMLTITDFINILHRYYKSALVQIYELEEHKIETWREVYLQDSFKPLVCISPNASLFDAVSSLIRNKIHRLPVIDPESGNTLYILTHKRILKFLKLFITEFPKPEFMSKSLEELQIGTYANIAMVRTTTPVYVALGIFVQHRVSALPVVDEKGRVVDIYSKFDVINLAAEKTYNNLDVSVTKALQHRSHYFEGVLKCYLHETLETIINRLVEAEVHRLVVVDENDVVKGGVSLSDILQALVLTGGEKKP
T2 sequence (P54646 whole entry): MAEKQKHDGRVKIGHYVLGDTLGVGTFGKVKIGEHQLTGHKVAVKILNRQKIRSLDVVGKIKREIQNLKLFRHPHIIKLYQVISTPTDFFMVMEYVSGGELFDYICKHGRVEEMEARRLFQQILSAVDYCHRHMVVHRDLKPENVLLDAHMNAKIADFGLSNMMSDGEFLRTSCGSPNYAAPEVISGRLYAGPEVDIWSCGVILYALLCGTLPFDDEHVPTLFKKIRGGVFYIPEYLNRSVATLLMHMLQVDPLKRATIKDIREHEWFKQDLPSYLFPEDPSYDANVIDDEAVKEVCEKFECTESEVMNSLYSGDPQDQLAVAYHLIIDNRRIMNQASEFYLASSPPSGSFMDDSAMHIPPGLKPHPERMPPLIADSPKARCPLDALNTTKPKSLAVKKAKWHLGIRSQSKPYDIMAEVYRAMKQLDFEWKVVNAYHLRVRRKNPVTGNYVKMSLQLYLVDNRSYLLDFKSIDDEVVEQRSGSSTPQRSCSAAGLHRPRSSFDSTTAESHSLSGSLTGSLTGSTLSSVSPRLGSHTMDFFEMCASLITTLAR
T2 sequence (O43741 whole entry partner): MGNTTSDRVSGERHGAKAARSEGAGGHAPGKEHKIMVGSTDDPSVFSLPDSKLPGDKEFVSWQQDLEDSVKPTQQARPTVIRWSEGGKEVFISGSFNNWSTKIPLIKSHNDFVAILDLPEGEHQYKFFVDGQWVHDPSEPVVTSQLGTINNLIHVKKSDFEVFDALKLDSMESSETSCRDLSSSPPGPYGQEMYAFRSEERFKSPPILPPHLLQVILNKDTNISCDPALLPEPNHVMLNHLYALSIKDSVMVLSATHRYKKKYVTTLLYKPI
The test is described as follows: AMPK activation and Thr172 phosphorylation by the LKB1 complex, CBS4 mutant. Format: biochemical. The conditions noted are these: 300 µM nucleotide, 200 µM ATP. As for the experimental part:
(§1) The relative roles of the three CBS sites in the other two mechanisms of activation of AMPK by AMP or ADP, i.e. promotion of Thr172 phosphorylation by LKB1, and protection against Thr172 dephosphorylation by protein phosphatases, have not been examined previously. As expected, incubation of the α2β2γ1 AMPK complex with a fixed, limiting amount of purified LKB1:STRADα:MO25α complex in the presence of 200 µM Mg.ATP^2− caused a large degree of activation (Figure 5A) and phosphorylation (Figure 5B) of AMPK (unphosphorylated α2β2γ1 complex), which were stimulated more than 2-fold by 300 µM AMP and 1.6-fold by 300 µM ADP.
(§2) Figure 5. Effects of AMP or ADP on AMPK activation and Thr172 phosphorylation by the LKB1:STRADα:MO25α complex. Unphosphorylated human α2β2γ1 complexes (WT, or with L129D/V130D, V276G/L277G or I312G mutations affecting CBS1, CBS3 or CBS4 respectively) were incubated with ATP and a fixed concentration of the LKB1:STRADα:MO25α complex in the presence or absence of AMP or ADP (both 300 µM), as described in the Materials and methods section. After the incubation aliquots were withdrawn for (A) AMPK assay or (B) Western blots. […] For (B), due to a limit on the number of lanes that could be run on one gel, single replicates from the triplicate assays were analysed. […]

For test [3], the target named is T3, human α2β2γ1 complex, CBS3 mutant (V276G/L277G) (Homo sapiens, UniProt P54619+P54646, L277G/V276G).
T3 construct: made in house; host or cells: Escherichia coli
T3 sequence (P54619 whole entry V276G/L277G): as the sequence (P54619 whole entry I312G) above, with V276G, L277G, G312I counted along it
T3 sequence (P54646 whole entry): as the sequence (P54646 whole entry) above
T3 sequence (O43741 whole entry partner): as the sequence (O43741 whole entry partner) above
The test can be described thus: AMPK activation and Thr172 phosphorylation by the LKB1 complex, CBS3 mutant. The conditions noted are these: 300 µM nucleotide, 200 µM ATP. Format: biochemical. As for the experimental part: as §1, §2

The subject of test [4] is bacterially expressed AMPK. The conditions noted are these: 5 mM Mg2+, 200 µM ATP, cited from earlier work.

Several values for one entry are separate records, joined by “and”; a condition that tells them apart may be missing. Equal entries are not always repeated. Where two headings read alike, the source gives them in different places.

T1 sequence (P54619 whole entry): as the sequence (P54619 whole entry I312G) above, with G312I counted along it
T1 sequence (P54646 whole entry): as the sequence (P54646 whole entry) above
T1 sequence (O43741 whole entry partner): as the sequence (O43741 whole entry partner) above

As to `Nc1ncnc2c1ncn2[C@@H]1O[C@H](COP(=O)(O)OP(=O)(O)O)[C@@H](O)[C@H]1O` [ADP], in test [1] (0.2 mM ATP), the “Activation (maximal)” value is “did not cause allosteric activation and none”; the IC50 – broadly, the point on the concentration scale where inhibition reaches its midpoint – worked out at 2600 µM. Also, the “maximal activation actually reached” value in test [1] (5 mM ATP) was determined as 1.6 fold. Besides, in test [1] (5.0 mM ATP), the “Activation (extrapolated maximal)” value is 9.9 fold and 9.9 (2.8 -??) fold; the IC50 worked out at 1200 µM; the IC50/EC50 is reported as 1.5. Also, the EC50 (usually the concentration that produces a half-maximal response) in test [1] (5.0 mM ATP, read-out: EC50) worked out at 785 µM. For the same compound, the EC50 in test [1] (5 mM ATP, read-out: EC50 for activation) is 780 µM and 800 µM. Further, the “effect of nucleotide on activation/phosphorylation by LKB1 in the mutant” value in test [2] is given as “abolished”. For the same compound, the “effect of nucleotide on activation/phosphorylation by LKB1 in the mutant” value in test [3] was “abolished”. The “effect on kinase activity” value in test [4] (200 µM ADP) is reported as “a small inhibition”. Moreover, the allosteric activation entry in test [4] (any ADP concentration up to 200 µM) was “no allosteric activation”.

For the compound `Nc1ncnc2c1ncn2[C@@H]1O[C@H](COP(=O)(O)O)[C@@H](O)[C@H]1O` [AMP], in test [1] (0.2 mM ATP), the “Activation (maximal)” value is 2.6 fold and 2.6 (2.5-2.6) fold; half-maximal inhibition (IC50) required 2600 µM; the IC50/EC50 amounted to 2600. For the same compound, the EC50 in test [1] (0.2 mM ATP, read-out: EC50) was 0.99 µM and 1 µM. Also, in test [1] (5.0 mM ATP), the “Activation (extrapolated maximal)” value is 3.0 fold and 3.0 (2.9-3.1) fold; the IC50 is 52000 µM; the IC50/EC50 was found to be 2700. Moreover, the EC50 in test [1] (5.0 mM ATP, read-out: EC50) is 19 µM. Moreover, the “effect of nucleotide on activation/phosphorylation by LKB1 in the mutant” value in test [2] is given as “abolished”. In addition, the “effect of nucleotide on activation/phosphorylation by LKB1 in the mutant” value in test [3] was “abolished”. In addition, the allosteric activation in test [4] (200 µM AMP) is ~2 fold.
